Values belong to the molecule of their own block, whether it stands above or below them.
Legend:
in vivo [1] = assay: in vivo; set-up: species or system mice; details: mouse, iv, 3.4 MBq, total radioactivity, Biodistribution
Protocol: Blood and major organs were harvested immediately, weighed, and counted using a γ-counter. The radioactivity of each sample was calculated as the percentage of injected dose per gram of tissue (%ID/g) and corrected for radioactive decay.

in vivo [2] = details: mouse, iv, 7.4 MBq, total radioactivity
Protocol: (§1) Images were reconstructed using 3-dimensional ordered-subset expectation maximization with attenuation correction. Regions of interest were drawn over the tumors and main organs, and average signal levels in the regions were measured using an Inveon Research Workplace workstation.

PC3-xenografted mice [3] = details: mouse, in vivo
Protocol: as §1

NTR1 = molecular target: T1, NTR1 (Homo sapiens, UniProt P30989); assay: Competitive receptor binding assay in NTR1-positive PC3 cells; details: 37 kBq tracer, NT 10^-8–10^2 μM as competitive inhibitor, 60 min, 37°C, γ-counter, mean ± SD, read-out: half-maximal inhibitory concentration
T1 construct: endogenous in cells; host or cells: PC3 human prostate adenocarcinoma cells
T1 sequence (P30989 whole entry): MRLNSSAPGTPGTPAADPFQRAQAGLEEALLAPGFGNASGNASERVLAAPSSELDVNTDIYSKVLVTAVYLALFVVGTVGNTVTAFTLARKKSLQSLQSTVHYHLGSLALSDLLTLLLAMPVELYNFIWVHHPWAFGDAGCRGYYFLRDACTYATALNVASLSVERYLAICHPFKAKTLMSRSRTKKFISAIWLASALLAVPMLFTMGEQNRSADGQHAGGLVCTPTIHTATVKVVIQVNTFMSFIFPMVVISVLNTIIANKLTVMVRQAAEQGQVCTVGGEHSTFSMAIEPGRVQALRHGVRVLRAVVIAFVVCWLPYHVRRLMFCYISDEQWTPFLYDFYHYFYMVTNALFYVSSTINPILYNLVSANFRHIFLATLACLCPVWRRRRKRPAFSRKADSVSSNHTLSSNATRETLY
Protocol: After incubation for 60 min at 37°C, the medium of each well was removed and the cells were washed twice with PBS. The removed medium and washing PBS were collected to represent the amount of free radioligand. The adherent cells were lysed with NaOH (0.1 M, 200 μL) and harvested after being washed twice by PBS. Finally, the cell-bound radioactivity (3 × 10^5 cells/mL) and the amount of free radioligand were measured in a γ-counter. The half-maximal inhibitory concentration was calculated using GraphPad Prism software. […] The radioactivity of adherent cells (3 × 10^5 cells/mL) was then measured after they were extracted with NaOH (0.1 M, 200 μL) and washed twice with PBS.

physchem = type: physicochemical; details: pH 7.4
Protocol: The layers were separated by centrifugation at 2,000 rpm (416g) for 5 min. Aliquots of 100 μL were removed from each phase and measured in a Wizard γ-counter (PerkinElmer). Calculated logD7.4 values were expressed as the mean ± SD from 3 experiments.

PC3-xenografted mice [4] = assay: Small-animal PET/CT imaging, PC3 xenografts; details: PC3 xenograft, 7.4 MBq i.v., 1 h after injection, mean ± SD
Protocol: as §1

LNCap-xenografted mice = assay: Small-animal PET/CT imaging, LNCap xenografts; details: LNCap xenograft, 7.4 MBq i.v., 1 h after injection, mean ± SD
Protocol: as §1

- tissue uptake at 5 min (in vivo [1]; Blood): 8.11 ± 1.54 %ID/g
- tissue uptake at 0.25 h (in vivo [1]; Blood): 4.15 ± 0.59 %ID/g
- tissue uptake at 0.5 h (in vivo [1]; Blood): 2.56 ± 0.23 %ID/g
- tissue uptake at 1 h (in vivo [1]; Blood): 1.12 ± 0.22 %ID/g
- tissue uptake at 2 h (in vivo [1]; Blood): 0.43 ± 0.08 %ID/g
- tissue uptake at 5 min (in vivo [1]; Bone): 2.27 ± 0.29 %ID/g
- tissue uptake at 0.25 h (in vivo [1]; Bone): 2.35 ± 0.52 %ID/g
- tissue uptake at 0.5 h (in vivo [1]; Bone): 1.27 ± 0.08 %ID/g
- tissue uptake at 1 h (in vivo [1]; Bone): 0.86 ± 0.17 %ID/g
- tissue uptake at 2 h (in vivo [1]; Bone): 0.53 ± 0.17 %ID/g
- tissue uptake at 5 min (in vivo [1]; Brain): 1.91 ± 0.39 %ID/g
- tissue uptake at 0.25 h (in vivo [1]; Brain): 1.35 ± 0.15 %ID/g
- tissue uptake at 0.5 h (in vivo [1]; Brain): 0.88 ± 0.1 %ID/g
- tissue uptake at 1 h (in vivo [1]; Brain): 0.6 ± 0.05 %ID/g
- tissue uptake at 2 h (in vivo [1]; Brain): 0.33 ± 0.1 %ID/g
- tissue uptake at 5 min (in vivo [1]; Fat): 1.42 ± 0.23 %ID/g
- tissue uptake at 0.25 h (in vivo [1]; Fat): 1.11 ± 0.23 %ID/g
- tissue uptake at 0.5 h (in vivo [1]; Fat): 0.62 ± 0.11 %ID/g
- tissue uptake at 1 h (in vivo [1]; Fat): 0.32 ± 0.03 %ID/g
- tissue uptake at 2 h (in vivo [1]; Fat): 0.32 ± 0.07 %ID/g
- tissue uptake at 5 min (in vivo [1]; Heart): 7.7 ± 0.9 %ID/g
- tissue uptake at 0.25 h (in vivo [1]; Heart): 3.88 ± 0.18 %ID/g
- tissue uptake at 0.5 h (in vivo [1]; Heart): 2.78 ± 0.36 %ID/g
- tissue uptake at 1 h (in vivo [1]; Heart): 1.57 ± 0.18 %ID/g
- tissue uptake at 2 h (in vivo [1]; Heart): 0.58 ± 0.11 %ID/g
- tissue uptake at 5 min (in vivo [1]; Intestine): 3.28 ± 0.3 %ID/g
- tissue uptake at 0.25 h (in vivo [1]; Intestine): 2.31 ± 0.92 %ID/g
- tissue uptake at 0.5 h (in vivo [1]; Intestine): 1.47 ± 0.26 %ID/g
- tissue uptake at 1 h (in vivo [1]; Intestine): 0.77 ± 0.24 %ID/g
- tissue uptake at 2 h (in vivo [1]; Intestine): 0.38 ± 0.04 %ID/g
- tissue uptake at 5 min (in vivo [1]; Kidney): 18.4 ± 1.27 %ID/g
- tissue uptake at 0.25 h (in vivo [1]; Kidney): 21.2 ± 1.95 %ID/g
- tissue uptake at 0.5 h (in vivo [1]; Kidney): 23.1 ± 1.94 %ID/g
- tissue uptake at 1 h (in vivo [1]; Kidney): 24.6 ± 0.98 %ID/g
- tissue uptake at 2 h (in vivo [1]; Kidney): 26.1 ± 0.79 %ID/g
- tissue uptake at 5 min (in vivo [1]; Liver): 5.46 ± 1.01 %ID/g
- tissue uptake at 0.25 h (in vivo [1]; Liver): 3.17 ± 0.45 %ID/g
- tissue uptake at 0.5 h (in vivo [1]; Liver): 2.02 ± 0.48 %ID/g
- tissue uptake at 1 h (in vivo [1]; Liver): 1.44 ± 0.2 %ID/g
- tissue uptake at 2 h (in vivo [1]; Liver): 0.86 ± 0.49 %ID/g
- tissue uptake at 5 min (in vivo [1]; Lung): 5.18 ± 0.16 %ID/g
- tissue uptake at 0.25 h (in vivo [1]; Lung): 3.28 ± 0.62 %ID/g
- tissue uptake at 0.5 h (in vivo [1]; Lung): 1.91 ± 0.15 %ID/g
- tissue uptake at 1 h (in vivo [1]; Lung): 1.2 ± 0.23 %ID/g
- tissue uptake at 2 h (in vivo [1]; Lung): 0.75 ± 0.15 %ID/g
- tissue uptake at 5 min (in vivo [1]; Muscle): 1.93 ± 0.65 %ID/g
- tissue uptake at 0.25 h (in vivo [1]; Muscle): 1.44 ± 0.17 %ID/g
- tissue uptake at 0.5 h (in vivo [1]; Muscle): 0.96 ± 0.08 %ID/g
- tissue uptake at 1 h (in vivo [1]; Muscle): 0.51 ± 0.02 %ID/g
- tissue uptake at 2 h (in vivo [1]; Muscle): 0.32 ± 0.04 %ID/g
- tissue uptake at 5 min (in vivo [1]; Pancreas): 2.88 ± 0.61 %ID/g
- tissue uptake at 0.25 h (in vivo [1]; Pancreas): 2.03 ± 0.26 %ID/g
- tissue uptake at 0.5 h (in vivo [1]; Pancreas): 1.59 ± 0.6 %ID/g
- tissue uptake at 1 h (in vivo [1]; Pancreas): 1.05 ± 0.07 %ID/g
- tissue uptake at 2 h (in vivo [1]; Pancreas): 0.36 ± 0.04 %ID/g
- tissue uptake at 5 min (in vivo [1]; Spleen): 3.97 ± 0.39 %ID/g
- tissue uptake at 0.25 h (in vivo [1]; Spleen): 2.81 ± 0.47 %ID/g
- tissue uptake at 0.5 h (in vivo [1]; Spleen): 1.85 ± 0.43 %ID/g
- tissue uptake at 1 h (in vivo [1]; Spleen): 1.06 ± 0.27 %ID/g
- tissue uptake at 2 h (in vivo [1]; Spleen): 0.41 ± 0.04 %ID/g
- tissue uptake at 5 min (in vivo [1]; Stomach): 3.56 ± 0.31 %ID/g
- tissue uptake at 0.25 h (in vivo [1]; Stomach): 2.49 ± 0.35 %ID/g
- tissue uptake at 0.5 h (in vivo [1]; Stomach): 1.75 ± 0.38 %ID/g
- tissue uptake at 1 h (in vivo [1]; Stomach): 0.91 ± 0.18 %ID/g
- tissue uptake at 5 min (in vivo [1]; Testis): 1.62 ± 0.11 %ID/g
- tissue uptake at 0.25 h (in vivo [1]; Testis): 1.31 ± 0.05 %ID/g
- tissue uptake at 0.5 h (in vivo [1]; Testis): 0.8 ± 0.06 %ID/g
- tissue uptake at 1 h (in vivo [1]; Testis): 0.42 ± 0.04 %ID/g
- tissue uptake at 2 h (in vivo [1]; Testis): 0.31 ± 0.1 %ID/g
- tissue uptake at 5 min (in vivo [1]; Tumor): 2.81 ± 0.39 %ID/g
- tissue uptake at 0.25 h (in vivo [1]; Tumor): 3.93 ± 0.43 %ID/g
- tissue uptake at 0.5 h (in vivo [1]; Tumor): 5.7 ± 0.8 %ID/g
- tissue uptake at 1 h (in vivo [1]; Tumor): 6.26 ± 0.41 %ID/g
- tissue uptake at 2 h (in vivo [1]; Tumor): 3.74 ± 0.56 %ID/g
- tissue uptake at 0.5 h (in vivo [2]): 4.53 ± 1.26 %ID/g
- tumor retention time (PC3-xenografted mice [3]): up to 4 h
- IC50 (NTR1): 7.59 ± 0.41 nM
- logD (physchem): -3.68 ± 0.14
SMILES: CC(=O)NC(CCCCNC(=O)CN1CCN(CC(=O)O)CCN(CC(=O)O)CCN(CC(=O)O)CC1)C(=O)N1CCCC1C(=O)N(C)C(CCCNC(=N)N)C(=O)NC(CCCNC(=N)N)C(=O)N1CCCC1C(=O)NC(Cc1ccc(O)cc1)C(=O)NC(C(=O)NC(CC(C)C)C(=O)O)C(C)(C)C (centres unmarked) [^68Ga-DOTA-NT-20.3, metal not drawn]

- tumor uptake (PET region of interest) (PC3-xenografted mice [4]): 0.53 ± 0.05 %ID/g
- tumor uptake (PET region of interest) (LNCap-xenografted mice): 8.60 ± 2.11 %ID/g
SMILES: O=C([O-])CN(CCN(CC(=O)[O-])Cc1cc(CCC(=O)NCCCCCC(=O)NCCCC[C@H](NC(=O)N[C@@H](CCC(=O)O)C(=O)O)C(=O)O)ccc1[O-])Cc1cc(CCC(=O)O)ccc1[O-].[68Ga+3].[OH3+] [^68Ga-PSMA-11]
